Results from PubChem BioAssay AID248 (DTP/NCI, 2004).
Where “and” joins values, the source holds several entries; their conditions need not be identical. Equal values may be shown once. Inconclusive results and toxic doses are left out. Cut-off read from the data, not from the text of the source: active = T/C of 150% or more; inactive = T/C below 125%.

Test system: L1210 leukemia ip in BDF1 mice, survival T/C
Test: NCI In Vivo Anticancer Drug Screen. Data for tumor model L1210 Leukemia (intraperitoneal) in B6D2F1 (BDF1) mice
Details: endpoint: mean survival time, higher = longer survival
How it was run: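 Value reflects the ratio of survival in compound-treated mice to survival in vehicle-treated controls, with both groups carrying the same transplanted tumor.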

[1] = dose: 100.0 mg/kg/injection, schedule: Q01DX009 (ip), vehicle: Klucel (hydroxypropylcellulose) (HPC)
[2] = dose: 200.0 mg/kg/injection, schedule: Q01DX009 (ip), vehicle: Klucel (hydroxypropylcellulose) (HPC)
[3] = dose: 400.0 mg/kg/injection, schedule: Q01DX009 (ip), vehicle: Klucel (hydroxypropylcellulose) (HPC)
[4] = dose: 100.0 mg/kg/injection, schedule: Q04DX003 (ip), vehicle: saline with Tween-80
[5] = dose: 200.0 mg/kg/injection, schedule: Q04DX003 (ip), vehicle: saline with Tween-80
[6] = dose: 400.0 mg/kg/injection, schedule: Q04DX003 (ip), vehicle: saline with Tween-80
[7] = dose: 100.0 mg/kg/injection, schedule: Q01DX001 (ip), vehicle: Klucel (hydroxypropylcellulose) (HPC)
[8] = dose: 200.0 mg/kg/injection, schedule: Q01DX001 (ip), vehicle: Klucel (hydroxypropylcellulose) (HPC)
[9] = dose: 400.0 mg/kg/injection, schedule: Q01DX001 (ip), vehicle: Klucel (hydroxypropylcellulose) (HPC)
[10] = dose: 100.0 mg/kg/injection, schedule: Q04DX002 (ip), vehicle: saline with Tween-80
[11] = dose: 100.0 mg/kg/injection, schedule: Q01DX009 (ip), vehicle: saline with Tween-80
[12] = dose: 100.0 mg/kg/injection, schedule: Q04DX002 (ip), vehicle: Klucel (hydroxypropylcellulose) (HPC)
[13] = dose: 200.0 mg/kg/injection, schedule: Q01DX009 (ip), vehicle: saline with Tween-80
[14] = dose: 200.0 mg/kg/injection, schedule: Q04DX002 (ip), vehicle: Klucel (hydroxypropylcellulose) (HPC)
[15] = dose: 400.0 mg/kg/injection, schedule: Q01DX009 (ip), vehicle: saline with Tween-80
[16] = dose: 400.0 mg/kg/injection, schedule: Q04DX002 (ip), vehicle: Klucel (hydroxypropylcellulose) (HPC)
[17] = dose: 100.0 mg/kg/injection, schedule: Q01DX001 (ip), vehicle: saline
[18] = dose: 200.0 mg/kg/injection, schedule: Q01DX001 (ip), vehicle: saline

Measured: T/C

NC1CCCCCCC1O (centres undefined)
inactive: dose: 5.0 mg/kg/injection, schedule: Q01DX009 (ip), vehicle: saline with Tween-80 105 % of control | dose: 10.0 mg/kg/injection, schedule: Q01DX009 (ip), vehicle: saline with Tween-80 94 % of control | dose: 20.0 mg/kg/injection, schedule: Q01DX009 (ip), vehicle: saline with Tween-80 100 % of control

COc1ccc(Cl)cc1NC(=O)N1CCN(c2ccccc2)CC1
inactive: [1] 120 % of control | dose: 100.0 mg/kg/injection, schedule: Q04DX003 (ip), vehicle: saline 101 % of control | [2] 97 % of control | dose: 200.0 mg/kg/injection, schedule: Q04DX003 (ip), vehicle: saline 101 % of control | [3] 111 % of control | dose: 400.0 mg/kg/injection, schedule: Q04DX003 (ip), vehicle: saline 97 % of control

COc1cc(Nc2nc(Cl)ncc2[N+](=O)[O-])cc(OC)c1OC
inactive: [4] 90 % of control | [5] 92 % of control | [6] 92 % of control

COC(=O)CC1(CC(=O)OC)C(=O)N(c2ccccc2)c2ccccc21
inactive: [7] 90 % of control | [8] 93 % of control | [9] 93 % of control

Nc1c(Cl)ncnc1NC1CC(CO)CC1O (centres undefined)
inactive: [7] 96 % of control | [8] 93 % of control | [9] 96 % of control

CCC1CCC(N)CC1 (centres undefined)
inactive: dose: 75.0 mg/kg/injection, schedule: Q01DX001 (ip), vehicle: saline 100 % of control

CC/C=C\CCCCCCO
inactive: dose: 100.0 mg/kg/injection, schedule: Q01DX001 (ip), vehicle: carboxymethylcellulose (CMC) 97 % of control and 94 % of control | dose: 200.0 mg/kg/injection, schedule: Q01DX001 (ip), vehicle: carboxymethylcellulose (CMC) 94 % of control | dose: 400.0 mg/kg/injection, schedule: Q01DX001 (ip), vehicle: carboxymethylcellulose (CMC) 89 % of control and 97 % of control

O=C(CCCN1CCC(O)(c2ccc(C(F)(F)F)cc2)CC1)c1ccc(N2CCC(O)CC2)cc1
inactive: [10] 93 % of control | dose: 200.0 mg/kg/injection, schedule: Q04DX002 (ip), vehicle: saline with Tween-80 100 % of control

O=S(NOCc1ccccc1)c1ccc(Cl)cc1 (centres undefined)
inactive: [1] 93 % of control | [2] 102 % of control | [3] 93 % of control

COc1ccc(/C=C2\N=C(c3cccc(Cl)c3)OC2=O)cc1OC
inactive: [11] 105 % of control | [12] 89 % of control | [13] 97 % of control | [14] 92 % of control | [15] 105 % of control | [16] 86 % of control

Cc1ccc(NC(=O)C(Cl)(Cl)Cl)cc1[N+](=O)[O-]
inactive: [11] 94 % of control | [13] 100 % of control | [15] 104 % of control

COc1nn(C)c(=O)c2ncccc12
inactive: dose: 15.0 mg/kg/injection, schedule: Q01DX001 (ip), vehicle: carboxymethylcellulose (CMC) 93 % of control | dose: 30.0 mg/kg/injection, schedule: Q01DX001 (ip), vehicle: carboxymethylcellulose (CMC) 92 % of control

N#C/C(=C\C1CCC(OCC2CCCCC2)CC1)C1CCC([N+](=O)[O-])CC1 (centres undefined)
inactive: dose: 25.0 mg/kg/injection, schedule: Q04DX002 (ip), vehicle: saline with Tween-80 97 % of control | dose: 50.0 mg/kg/injection, schedule: Q04DX002 (ip), vehicle: saline with Tween-80 102 % of control | [10] 100 % of control and 91 % of control

COc1ccc(C2=CCCCC2)cc1
inactive: [11] 97 % of control | [4] 105 % of control | [13] 91 % of control | [5] 110 % of control | [15] 94 % of control | [6] 103 % of control

Cl[SiH](Cl)c1ccccc1
inactive: [17] 96 % of control | [18] 96 % of control | dose: 400.0 mg/kg/injection, schedule: Q01DX001 (ip), vehicle: saline 90 % of control

O=C1c2ccccc2-c2c1nc1ccccc1[n+]2[O-]
inactive: dose: 75.0 mg/kg/injection, schedule: Q01DX001 (ip), vehicle: saline sonified 89 % of control | dose: 150.0 mg/kg/injection, schedule: Q01DX001 (ip), vehicle: saline sonified 92 % of control | dose: 300.0 mg/kg/injection, schedule: Q01DX001 (ip), vehicle: saline sonified 92 % of control

O=C(Cc1ccccc1)NCc1ccccc1
inactive: dose: 25.0 mg/kg/injection, schedule: Q01DX001 (ip), vehicle: saline 97 % of control | dose: 50.0 mg/kg/injection, schedule: Q01DX001 (ip), vehicle: saline 101 % of control | [17] 104 % of control | [18] 104 % of control

O=C(CC(=O)c1ccccc1)CC(=O)c1ccccc1
inactive: [7] 97 % of control | [8] 100 % of control | [9] 94 % of control

CCN(C(=S)Nc1cccc(OC)c1)c1ccccc1
inactive: [1] 90 % of control | [2] 94 % of control

ClCCCN1c2ccccc2CCc2ccccc21
inactive: dose: 100.0 mg/kg/injection, schedule: Q04DX003 (ip), vehicle: acetone 100 % of control | dose: 200.0 mg/kg/injection, schedule: Q04DX003 (ip), vehicle: acetone 100 % of control | dose: 400.0 mg/kg/injection, schedule: Q04DX003 (ip), vehicle: acetone 103 % of control

NCCSC(C[N+](=O)[O-])c1ccc2c(c1)OCO2 (centres undefined)
inactive: [4] 93 % of control | [5] 98 % of control

O=C(Cl)COc1cccc2ccccc12
inactive: [1] 93 % of control | [2] 98 % of control | [3] 101 % of control

c1ccc(CNc2nn[nH]n2)cc1
inactive: [4] 96 % of control | [5] 96 % of control | [6] 94 % of control

O=C(OCC#CCOC(=O)C(Cl)Cl)C(Cl)Cl
inactive: dose: 100.0 mg/kg/injection, schedule: Q01DX009 (ip), vehicle: saline 107 % of control | dose: 200.0 mg/kg/injection, schedule: Q01DX009 (ip), vehicle: saline 91 % of control | dose: 400.0 mg/kg/injection, schedule: Q01DX009 (ip), vehicle: saline 94 % of control

CCCCC(=O)N1CCCC(C)C1 (centres undefined)
inactive: [12] 105 % of control

CC(C)=CCC/C(C)=C/Cn1c(=O)cc[nH]c1=O
inactive: dose: 100.0 mg/kg/injection, schedule: Q04DX003 (ip), vehicle: other 96 % of control | dose: 200.0 mg/kg/injection, schedule: Q04DX003 (ip), vehicle: other 86 % of control | dose: 400.0 mg/kg/injection, schedule: Q04DX003 (ip), vehicle: other 86 % of control

O=C(CCCBr)Nc1ccc2ccccc2c1
inactive: dose: 50.0 mg/kg/injection, schedule: Q01DX009 (ip), vehicle: saline with Tween-80 98 % of control | [11] 95 % of control | [13] 95 % of control

CCOC(=O)C1C2OC(=O)C(C(=O)C2N=Nc2ccc(-c3ccc(N=NC4C(=O)C5C(=O)OC4C(C(=O)OCC)C5C4CC=CCC4)cc3)cc2)C1C1CC=CCC1 (centres undefined)
inactive: dose: 100.0 mg/kg/injection, schedule: Q01DX001 (ip), vehicle: other 86 % of control | [11] 108 % of control | [4] 100 % of control | dose: 200.0 mg/kg/injection, schedule: Q01DX001 (ip), vehicle: other 86 % of control | [13] 104 % of control | [5] 100 % of control | [15] 102 % of control | [6] 100 % of control

CN(N=O)C(=O)C(=O)N(C)N=O
inactive: dose: 9.0 mg/kg/injection, schedule: Q01DX001 (ip), vehicle: other 109 % of control | dose: 13.0 mg/kg/injection, schedule: Q01DX001 (ip), vehicle: other 112 % of control | dose: 15.0 mg/kg/injection, schedule: Q01DX Z (ip), vehicle: saline 100 % of control | dose: 30.0 mg/kg/injection, schedule: Q01DX Z (ip), vehicle: saline 103 % of control | dose: 60.0 mg/kg/injection, schedule: Q01DX Z (ip), vehicle: saline 92 % of control | dose: 120.0 mg/kg/injection, schedule: Q01DX Z (ip), vehicle: saline 94 % of control

Cc1nccn1-c1ccc(Cl)cc1N=Cc1ccc(N(CCCl)CCCl)cc1
inactive: [12] 98 % of control | [14] 102 % of control | [16] 102 % of control

O=C1C(=O)N(CN2CCCCC2)c2ccccc21
inactive: [11] 98 % of control | [4] 109 % of control | [13] 113 % of control | [5] 109 % of control | [15] 104 % of control | [6] 108 % of control

O=C(CCCc1ccc(N(CCCl)CCCl)cc1)NC1CCCC1
inactive: dose: 4.0 mg/kg/injection, schedule: Q12HX018 (ip), vehicle: other 103 % of control | dose: 6.0 mg/kg/injection, schedule: Q12HX018 (ip), vehicle: other 98 % of control | dose: 8.0 mg/kg/injection, schedule: Q12HX018 (ip), vehicle: other 103 % of control
